Experimental data as given in patent publication US9192560B2, “Stable composition comprising an anti-ageing compound and a solvent” (CHANEL PARFUMS BEAUTE, priority 2012, dated 2015).
Like-named read-outs stand apart in the source and are kept apart here. One block for each compound: values may come before it.

Legend:
[1] = Study of olfactory stability of Base with odor absorber
Description: A Base composition as follows was prepared. In this composition, octocrylene is used as diacetylresveratryl thioctate-stabilizing solvent.
0.6% of each candidate odor absorber was added to one of the base compositions above and the olfactory stability was tested at three temperatures (ambient temperature, 5° C. and 45° C.) and at the following times: • at the beginning (to), • 1 month (1M), • 2 months (2M) and • 3 months (3M).

[2] = Stability of diacetylresveratryl thioctate in the formulation with odor absorber; format: physicochemical; conditions: 0.6% odor absorber in Base (0.10% diacetylresveratryl thioctate), two months
Description: A diacetylresveratryl thioctate stability test was carried out for the odor absorbers retained in Example 3, according to the following protocol, for the purpose of confirming the compatibility between the solvent and the odor absorber.

[3] = Resveratrol stabilization test in solvents (comparative example); format: physicochemical
Description: The stabilization of resveratrol by dimethyl isosorbide, ethylhexyl methoxycrylene and octocrylene was evaluated according to the same protocol as Example 1-a, except that the solubility was evaluated on the same day as to (0D).

[4] = Diacetylresveratryl thioctate stabilization test in candidate solvents (solubility at t0 and a day later); conditions: for Solubility 1 D/AT / Solubility t0/AT: diacetylresveratryl thioctate in the named solvent, ambient temperature; for Solubility 1 D/AT: a day later; for Solubility t0/AT: initial; for Stability: stabilization of diacetylresveratryl thioctate by the named solvent
Description: The term “stabilization” is intended to mean an absence of crystallization of diacetylresveratryl thioctate after 10 days at 4° C. and six months at AT.
The candidate solvents thus chosen are then subjected to the stabilization test. This test consists in comparing the initial solubility (t0) and the solubility a day later (1D) at ambient temperature (AT).

[5] = listed as ethylhexyl methoxycrylene

Compound: O=C1CC[C@@H](C(=O)[O-])N1.O=C1CC[C@@H](C(=O)[O-])N1.[Cu+2] [Copper L-pyrrolidone carboxylate salt]
olfactory stability 1 M ([1]; 0.6% odor absorber in Base, 1 month, identical at AT, 5° C. and 45° C.): Yes
olfactory stability 2 M 5° C. ([1]; 0.6% odor absorber in Base, 2 months, 5° C.): Yes
olfactory stability 2 M 45° C. ([1]; 0.6% odor absorber in Base, 2 months, 45° C.): Yes
olfactory stability 2 M AT ([1]; 0.6% odor absorber in Base, 2 months, ambient temperature): Yes
olfactory stability 3 M ([1]; 0.6% odor absorber in Base, 3 months, identical at AT, 5° C. and 45° C.): Yes
olfactory stability t0 ([1]; 0.6% odor absorber in Base, identical at AT, 5° C. and 45° C.): Yes
olfactory stability, overall conclusion ([1]; odor absorber in combination with the Base, up to 3 months): the most appropriate
degree of diacetylresveratryl thioctate stabilization 5° C. ([2]; 5° C.): 0.1
degree of diacetylresveratryl thioctate stabilization 45° C. ([2]; 45° C.): 0.094

Compound: CO[C@H]1CO[C@H]2[C@@H]1OC[C@H]2OC [Dimethyl isosorbide]
Solubility t0/AT ([3]; resveratrol in the named solvent, initial, ambient temperature): Partially soluble
Solubility 0 D/AT ([3]; resveratrol in the named solvent, same day, ambient temperature): Precipitate
Stability ([3]; stabilization of resveratrol by the named solvent): No
Solubility 1 D/AT [4]: Clear
Solubility t0/AT [4]: Partially soluble
Solubility t0/AT ([4]; listed as dimethyl isosorbide): partially soluble
Stability [4]: Yes

Solubility 0 D/AT [3]: Precipitate
Solubility t0/AT [3]: Soluble fraction
Stability [3]: No
Solubility 1 D/AT [4]: Clear
Solubility t0/AT [4]: Partially soluble
Solubility t0/AT [4, 5]: partially soluble
Stability [4]: Yes
Stability [4, 5]: particularly satisfactory
Compound: CCCCC(CC)COC(=O)C(C#N)=C(c1ccccc1)c1ccc(OC)cc1 (stereo not shown) [Ethylhexyl methoxycrylene]

Solubility 0 D/AT [3]: Precipitate
Solubility t0/AT [3]: Soluble fraction
Stability [3]: No
Compound: CCCCC(CC)COC(=O)C(C#N)=C(c1ccccc1)c1ccccc1 (stereo not shown) [Octocrylene]

Solubility 1 D/AT [4]: Precipitate
Solubility t0/AT [4]: Insoluble
stability of diacetylresveratryl thioctate solubilized in a conventional solvent ([4]; general observation of the applicant): recrystallizes
Stability [4]: No
Compound: CCCCCCCCCCC(CO)CCCCCCCC (stereo not shown) [Octyldodecanol]

Compound: O=C(Oc1ccccc1)c1ccccc1 [Phenyl benzoate]
Solubility 1 D/AT [4]: Clear
Solubility t0/AT [4]: Partially soluble
Solubility t0/AT ([4]; listed as phenyl benzoate): partially soluble
Stability [4]: Yes

Solubility 1 D/AT [4]: Clear
Solubility t0/AT [4]: Partially soluble
Solubility t0/AT ([4]; listed as trioctyl trimellitate): partially soluble
Stability [4]: Yes
Compound: CCCCCCCCOC(=O)c1ccc(C(=O)OCCCCCCCC)c(C(=O)OCCCCCCCC)c1 [Trioctyl trimellitate]

olfactory stability t0 [1]: Yes
Compound: Kaolin
